Key:
Experiment in all cases: relative viability (nuclei count vs DMSO), 5 days (fraction); higher = more cells survive
Adavosertib + Bortezomib = compound: C=CCn1c(=O)c2cnc(Nc3ccc(N4CCN(C)CC4)cc3)nc2n1-c1cccc(C(C)(C)O)n1 [Adavosertib] + CC(C)C[C@H](NC(=O)[C@H](Cc1ccccc1)NC(=O)c1cnccn1)B(O)O [Bortezomib] (partner 0.002 µM)
Procedure, shortened: (§1)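 After 5 days of treatment, lung cancer cells in 1536-well plates were fixed and stained in a single step (final 0.05% Triton X-100, 1% formaldehyde, 1 ug/ml Hoechst) and their nuclei counted on 4× images. Treatment had been applied by pin tool the day after seeding as one drug alone or as a fixed anchor-drug dose with five library-drug doses (not always all listed) in √10 steps. Relative viability is the nuclei count of treated wells divided by that of vehicle wells, and values are medians of duplicate plates.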

Adavosertib + Pictilisib = compound: C=CCn1c(=O)c2cnc(Nc3ccc(N4CCN(C)CC4)cc3)nc2n1-c1cccc(C(C)(C)O)n1 [Adavosertib] + CS(=O)(=O)N1CCN(Cc2cc3nc(-c4cccc5[nH]ncc45)nc(N4CCOCC4)c3s2)CC1 [Pictilisib] (partner 1 µM)
Procedure, shortened: as §1

Adavosertib + Olaparib = compound: C=CCn1c(=O)c2cnc(Nc3ccc(N4CCN(C)CC4)cc3)nc2n1-c1cccc(C(C)(C)O)n1 [Adavosertib] + O=C(c1cc(Cc2n[nH]c(=O)c3ccccc23)ccc1F)N1CCN(C(=O)C2CC2)CC1 [Olaparib] (partner 8 µM)
Procedure, shortened: as §1

Nelarabine + Dasatinib = compound: COc1nc(N)nc2c1ncn2[C@@H]1O[C@H](CO)[C@@H](O)[C@@H]1O [Nelarabine] + Cc1nc(Nc2ncc(C(=O)Nc3c(C)cccc3Cl)s2)cc(N2CCN(CCO)CC2)n1 [Dasatinib] (partner 0.075 µM)
Procedure, shortened: as §1

Cell Line	relative viability (Adavosertib + Bortezomib; first compound 0.01 µM)	relative viability (Adavosertib + Bortezomib; first compound 0.03162 µM)	relative viability (Adavosertib + Bortezomib; first compound 0.1 µM)	relative viability (Adavosertib + Bortezomib; first compound 0.3162 µM)	relative viability (Adavosertib + Pictilisib; first compound 0.01 µM)	relative viability (Adavosertib + Pictilisib; first compound 0.03162 µM)	relative viability (Adavosertib + Pictilisib; first compound 0.1 µM)	relative viability (Adavosertib + Pictilisib; first compound 0.3162 µM)	relative viability (Adavosertib + Olaparib; first compound 0.01 µM)	relative viability (Adavosertib + Olaparib; first compound 0.03162 µM)	relative viability (Adavosertib + Olaparib; first compound 0.1 µM)	relative viability (Adavosertib + Olaparib; first compound 0.3162 µM)	relative viability (Nelarabine + Dasatinib; first compound 0.01 µM)	relative viability (Nelarabine + Dasatinib; first compound 0.03162 µM)	relative viability (Nelarabine + Dasatinib; first compound 0.1 µM)	relative viability (Nelarabine + Dasatinib; first compound 0.3162 µM)	relative viability (Nelarabine + Dasatinib; first compound 1 µM)
201T	1.06	1.06	1.16	1.14	0.668	0.683	0.625	0.654	0.887	0.882	0.868	0.818	0.602	0.57	0.429	0.577	0.625
A549					0.505	0.513	0.554	0.382	0.356	0.336	0.446	0.438					
A-427	0.906	1.04	0.964	0.861	0.735	0.653	0.684	0.798	0.76	0.716	0.815	0.701	0.721	0.662	0.753	0.736	0.789
ABC-1	0.247	0.329	0.255	0.332	0.586	0.695	0.528	0.627	0.942	0.779	1.02	0.664	0.705	0.462	0.507	0.548	0.545
BEN	0.807	0.986	0.811	0.851	0.575	0.682	0.587	0.558	1.07	1.01	1.12	1.05	0.296	0.308	0.353	0.386	0.298
CAL-12T		0.817	0.946	0.68		0.396	0.412	0.274	0.722	0.723	0.863	0.475	0.426	0.484	0.16	0.51	0.482
COR-L23	0.976	1.03	0.95	0.546	0.665	0.636	0.722	0.266	0.339	0.34	0.227	0.163	0.611	0.442	0.502	0.543	0.402
COR-L 105	0.984	0.719	0.855	0.627	0.415	0.384	0.356	0.393	0.657	0.689	0.76	0.65	0.339	0.402	0.259	0.351	0.319
Calu-6	0.93	1.01	1.05	0.386	0.922	0.875	0.788	0.333	0.629	0.552	0.523	0.216					
ChaGo-K-1	0.872	0.838	0.897	0.699	0.579	0.678	0.663	0.631	0.434	0.39	0.405	0.32	0.624	0.515	0.533	0.707	0.568
EBC-1	0.719	0.653	0.562	0.493	0.387	0.429	0.382	0.286	0.624	0.765	0.83	0.647					
EKVX	0.992	1.14	0.996	1.27	0.44	0.448	0.433	0.437	0.756	0.841	0.783	0.833	0.509	0.468	0.396	0.575	0.608
EMC-BAC-2	0.987	0.989	1.06	1.04	0.544	0.56	0.583	0.544		0.493	0.51	0.453	0.409	0.348	0.304	0.374	0.356
EPLC-272H	0.959	0.805	0.866	0.732	0.277	0.414	0.303	0.295	0.955	0.674	0.566	0.2	0.323	0.361	0.129	0.401	0.29
H3255	0.539	0.885	0.699	0.845	0.502	0.452	0.447	0.402	0.604	0.522	0.667	0.583		0.427	0.367	0.345	0.309
HARA	0.981	1.17	1.13	0.938	0.409	0.461	0.374	0.269	0.464	0.535	0.766	0.187	0.279	0.339	0.236	0.329	0.436
HCC-15	1.01	0.953	1.07	1.26	0.724	0.713	0.727	0.934	0.73	0.727	0.958	0.876	0.568	0.554	0.523	0.639	0.67
HCC-44	0.889	0.95	0.89	1.04	0.518	0.647	0.526	0.62	1	0.943	1.02	1.02					
HCC-78	0.542	0.46	0.529	0.573	0.194	0.221	0.255	0.171	0.966	0.807	0.83	0.835	0.384	0.358		0.459	0.37

Cell Line	relative viability (Adavosertib + Bortezomib; first compound 0.01 µM)	relative viability (Adavosertib + Bortezomib; first compound 0.03162 µM)	relative viability (Adavosertib + Bortezomib; first compound 0.1 µM)	relative viability (Adavosertib + Bortezomib; first compound 0.3162 µM)	relative viability (Adavosertib + Pictilisib; first compound 0.01 µM)	relative viability (Adavosertib + Pictilisib; first compound 0.03162 µM)	relative viability (Adavosertib + Pictilisib; first compound 0.1 µM)	relative viability (Adavosertib + Pictilisib; first compound 0.3162 µM)	relative viability (Adavosertib + Olaparib; first compound 0.01 µM)	relative viability (Adavosertib + Olaparib; first compound 0.03162 µM)	relative viability (Adavosertib + Olaparib; first compound 0.1 µM)	relative viability (Adavosertib + Olaparib; first compound 0.3162 µM)	relative viability (Nelarabine + Dasatinib; first compound 0.01 µM)	relative viability (Nelarabine + Dasatinib; first compound 0.03162 µM)	relative viability (Nelarabine + Dasatinib; first compound 0.1 µM)	relative viability (Nelarabine + Dasatinib; first compound 0.3162 µM)	relative viability (Nelarabine + Dasatinib; first compound 1 µM)
HCC-366	1.03	1.05	1.1	1.05	0.155	0.143	0.217	0.172	0.356	0.376	0.317	0.32	0.907	0.71	0.588	0.79	0.661
HCC-827	1.02	1.04	1.06	1.06	0.985	1.05	1.08	0.937	0.627	0.707	0.709	0.655	0.431	0.241	0.166	0.295	0.361
HOP-62	0.941	1.08	1.03	1.03	0.771	0.891	0.762	0.961	0.429	0.3	0.663	0.254	0.635	0.636	0.395	0.764	0.738
IA-LM	0.899	0.989	0.893	0.774	0.363	0.404	0.418	0.365	0.809	0.82	0.872	0.775					
LC-2-ad	1.11	1.08	1.09	1.16	0.455	0.587	0.424	0.37	0.7	0.725	0.803	0.786	0.556	0.647	0.463	0.529	0.611
LK-2					0.549	0.622	0.676	0.59	0.742	0.891	0.763	0.767	0.337		0.216	0.352	0.266
NCI-H358					0.356	0.312	0.353	0.285	0.563	0.517	0.416	0.329	0.17	0.144	0.148	0.145	0.154
NCI-H522									0.724	0.644	0.647	0.734	0.863	0.866	1.07	0.801	0.993
NCI-H1299	1.02	1.03	1.09	1.02	0.982	0.66	0.541	0.123	0.953	0.959	1.04	0.357					
NCI-H1395					0.545	0.546	0.596	0.635	0.561	0.547	0.409	0.438	0.418	0.39	0.413	0.408	0.408
NCI-H1563	0.9	0.901	0.86	0.869	0.631	0.62	0.609	0.625					0.458	0.437	0.427	0.42	0.406
NCI-H1648									0.953	0.966	1.39	0.769					
NCI-H1703	0.461	0.366	0.464	0.18	0.297	0.227	0.179	0.127	0.507	0.545	0.387	0.141					
NCI-H1793					0.385	0.295	0.318	0.248	0.739	0.794	0.746	0.529	0.458	0.398	0.416	0.426	0.409
NCI-H1944					0.387	0.333	0.333	0.326	0.41	0.384	0.393	0.403	0.211	0.213	0.196	0.185	0.194
NCI-H2170					0.345	0.308	0.264	0.31	0.643	0.586	0.588	0.448	0.61	0.608	0.491	0.697	0.614
NCI-H2342									0.497	0.561	0.492	0.524	0.324	0.302	0.282	0.346	0.29
SK-MES-1					0.307	0.343	0.321	0.213	0.748	0.805	0.379	0.233	0.385	0.263	0.172	0.324	0.301
SW 900									0.722	0.851	0.779	0.399	0.555	0.439	0.524	0.623	0.639

Reference: the supplement of paper PMC10307832
